From patent US12180192B2, “Modulators of THR-β and methods of use thereof” (ALIGOS THERAPEUTICS, INC., priority 2019, dated 2024)

Legend:
[1] = molecular target: T1, human thyroid receptor beta ligand-binding domain (LBD) (Homo sapiens, UniProt P10828); assay: TR-FRET thyroid receptor beta coactivator assay (THR biochemical assay, Assay 1); settings: for EC50: THR-beta, TR-FRET coactivator assay, read-out: Activity category Assay 1 (EC50, THR-beta agonist); for Emax: Table 5, Assay 1, THRβ, read-out: Activity category Assay 1 THRβ (Emax)
T1 construct: purchased Invitrogen
T1 sequence (P10828 217-461 limits assumed): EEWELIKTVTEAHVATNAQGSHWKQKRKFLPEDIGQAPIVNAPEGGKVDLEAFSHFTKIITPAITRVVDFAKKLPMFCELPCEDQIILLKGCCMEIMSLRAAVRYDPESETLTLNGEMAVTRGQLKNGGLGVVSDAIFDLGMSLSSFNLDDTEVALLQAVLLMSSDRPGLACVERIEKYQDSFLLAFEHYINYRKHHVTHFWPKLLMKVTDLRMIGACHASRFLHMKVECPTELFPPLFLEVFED
Text: (§1) The TR-FRET thyroid receptor beta coactivator assay was used with slight, optimized modifications of the manufacturer's protocol (Invitrogen). The assay uses a terbium-labeled anti-GST antibody, a glutathione-S-transferase (GST) tagged human thyroid receptor, beta or alpha, ligand-binding domain (LBD), and a fluorescein labeled SRC2-2 coactivator peptide. […] The energy transfer is detected as an increase in the fluorescence emission of the fluorescein acceptor, and a decrease in the fluorescence emission of the terbium donor. The assay is performed in a 384-well black plate in a final volume of 20 μL. Serial dilution of various test agonists was performed in DMSO (1% final DMSO concentration) and added to the test plate. Thyroid receptor beta LBD is added to the plate at a final concentration of 1 nM, followed by the mixture of the fluorescein labeled SRC2-2 coactivator peptide, and the terbium-labeled anti-GST antibody at final concentrations of 200 nM and 2 nM respectively. The assay is incubated for 1 hr at rt protected from light.

[2] = molecular target: T2, THR alpha (Homo sapiens, UniProt P10827); assay: HEK293T THR alpha/RXR luciferase reporter assay (Assay 2); type: cell-based; settings: Assay 2; for Emax: HEK-293T, Table 5, THRα, read-out: Activity category Assay 2 THRα (Emax); for EC50: Table 4, THR-alpha, read-out: Activity category Assay 2 (EC50, THR-alpha agonist activity)
T2 construct: expressed in transfected cells; host or cells: HEK293T (ATCC CRL-3216)
T2 sequence (P10827 1-410 isoform P10827-2): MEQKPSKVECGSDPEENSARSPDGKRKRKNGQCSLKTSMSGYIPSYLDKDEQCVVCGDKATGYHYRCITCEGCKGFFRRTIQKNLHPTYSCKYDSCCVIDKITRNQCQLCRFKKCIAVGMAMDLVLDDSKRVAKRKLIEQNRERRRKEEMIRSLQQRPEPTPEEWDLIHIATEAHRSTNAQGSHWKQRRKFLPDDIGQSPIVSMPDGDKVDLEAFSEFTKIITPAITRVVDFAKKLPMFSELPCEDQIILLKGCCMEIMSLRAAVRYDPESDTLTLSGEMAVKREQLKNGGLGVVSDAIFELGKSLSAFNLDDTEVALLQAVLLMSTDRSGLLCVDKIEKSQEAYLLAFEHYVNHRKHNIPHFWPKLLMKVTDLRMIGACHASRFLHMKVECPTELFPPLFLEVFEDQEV
T2 sequence (P19793 1-462 partner): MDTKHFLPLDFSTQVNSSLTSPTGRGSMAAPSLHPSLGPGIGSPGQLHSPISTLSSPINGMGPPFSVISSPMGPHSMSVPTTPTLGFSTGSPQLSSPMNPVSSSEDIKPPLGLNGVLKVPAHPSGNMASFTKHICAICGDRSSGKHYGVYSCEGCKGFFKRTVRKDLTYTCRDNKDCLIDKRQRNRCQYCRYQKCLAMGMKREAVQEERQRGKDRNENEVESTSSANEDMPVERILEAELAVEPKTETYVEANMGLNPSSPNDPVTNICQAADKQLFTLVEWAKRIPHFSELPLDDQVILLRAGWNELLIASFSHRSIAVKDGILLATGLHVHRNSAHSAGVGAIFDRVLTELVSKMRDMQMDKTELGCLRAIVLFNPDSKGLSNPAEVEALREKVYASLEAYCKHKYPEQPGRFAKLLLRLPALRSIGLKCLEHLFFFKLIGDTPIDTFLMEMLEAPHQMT
Procedure: (§2) HEK293T Reporter THRalpha/Beta/RXR Reporter Assay (Assay 2)
(§3) The purpose of this assay is to evaluate the effect of compounds on the thyroid hormone nuclear receptor pathway in HEK293T cells. To this end, HEK293T cells are transiently transfected with a luciferase reporter under the control of the thyroid response element (TRE), an RXR expression plasmid and either a THR alpha or THR beta expression plasmid. Transfected cells are stimulated with test compounds for 18-24 hours before activation of the thyroid hormone pathway is measured via a luciferase read-out.
(§4) Procedure. […] Ten five-fold dilutions of test compounds are prepared in DMSO and 30 nL are dispensed to the cells. […] Approximately 18-24 h after compound addition, 384 well plates are allowed to adjust to rt, 30 μL One-Glo (Promega catalog #E6120) is added to each well and luminescence is measured on a Perkin Elmer Enspire plate reader. Percent agonism is calculated using the following equation: 100× (sample-negative control)/(positive control-negative control).

[3] = molecular target: T3, human thyroid receptor alpha ligand-binding domain (LBD) (Homo sapiens, UniProt P10827); assay: TR-FRET thyroid receptor alpha coactivator assay (THR biochemical assay, Assay 1); settings: for EC50: Table 4, THR-alpha, read-out: Activity category Assay 1 (EC50, THR-alpha agonist activity); for Emax: Table 5, THRα, read-out: Activity category Assay 1 THRα (Emax)
T3 construct: purchased Invitrogen
Text: as §1

[4] = molecular target: T4, THR beta (Homo sapiens, UniProt P10828); assay: HEK293T THR beta/RXR luciferase reporter assay (Assay 2); type: cell-based; settings: for Emax: HEK-293T, Table 5, Assay 2, THRβ, read-out: Activity category Assay 2 THRβ (Emax); for EC50: THR-beta, HEK293T reporter assay, read-out: Activity category Assay 2 (EC50, THR-beta agonist)
T4 construct: expressed in transfected cells; host or cells: HEK293T (ATCC CRL-3216)
T4 sequence (P10828 1-461): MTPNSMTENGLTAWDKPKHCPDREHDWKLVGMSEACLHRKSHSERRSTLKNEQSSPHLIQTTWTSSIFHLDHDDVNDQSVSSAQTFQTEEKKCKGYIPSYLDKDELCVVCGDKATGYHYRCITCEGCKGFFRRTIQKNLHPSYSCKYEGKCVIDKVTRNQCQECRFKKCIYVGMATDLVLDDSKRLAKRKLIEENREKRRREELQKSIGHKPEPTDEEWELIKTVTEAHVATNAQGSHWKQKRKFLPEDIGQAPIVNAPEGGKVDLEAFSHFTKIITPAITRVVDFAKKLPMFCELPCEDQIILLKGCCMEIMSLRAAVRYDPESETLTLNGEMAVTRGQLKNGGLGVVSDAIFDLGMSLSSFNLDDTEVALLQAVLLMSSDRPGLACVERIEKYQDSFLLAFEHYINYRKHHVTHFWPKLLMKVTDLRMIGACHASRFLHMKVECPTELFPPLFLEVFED
T4 sequence (P19793 1-462 partner): T2 sequence (P19793 1-462 partner)
Procedure: as §2, §3, §4

EC50 [1]	Emax [1]	Emax [2]	EC50 [2]	EC50 [3]	Emax [3]	Emax [4]	EC50 [4]	Compound
< 50 nM	50 to 75%	< 50%	< 50 nM	50 to 250 nM	50 to 75%	50 to 75%	< 50 nM	CC(C)c1cc(Cc2c(Cl)cc(-n3nc(N)c(=O)[nH]c3=O)cc2Cl)n[nH]c1=O [Compound 36, 6-Amino-2-[3,5-dichloro-4-[(5-isopropyl-6-oxo-1H-pyridazin-3-yl)methyl]-phenyl]-4H-1,2,4-triazine-3,5-dione]
1000 to 25000 nM	50 to 75%	50 to 75%	1000 to 10000 nM	1000 to 25000 nM	< 50%	> 75%	> 10000 nM	CC(C)c1cc(Oc2c(Cl)cc(-n3nc(N)c(=O)[nH]c3=O)c3c2CC3)n[nH]c1=O [Compound 79, 6-Amino-2-[4-chloro-5-[(5-isopropyl-6-oxo-1H-pyridazin-3-yl)oxy]-bicyclo[4.2.0]octa-1(6),2,4-trien-2-yl]-4H-1,2,4-triazine-3,5-dione]
< 50 nM	< 50%	50 to 75%	< 50 nM	< 50 nM	< 50%	50 to 75%	< 50 nM	Cc1cc(-n2nc(N)c(=O)[nH]c2=O)cc(C)c1Cc1ccc2c(c1)C1(CCCC1)C(=O)N2 [Compound 150, 6-Amino-2-(3,5-dimethyl-4-((2′-oxospiro[cyclopentane-1,3′-indolin]-5′-yl)methyl)phenyl)-1,2,4-triazine-3,5(2H,4H)-dione]
250 to 1000 nM	< 50%	< 50%	1000 to 10000 nM	1000 to 25000 nM	< 50%	50 to 75%	1000 to 10000 nM	Nc1nn(-c2cc(Cl)c(Oc3cc(C4CC(F)(F)C4)c(=O)[nH]n3)c(Cl)c2)c(=O)[nH]c1=O [Compound 106]
< 50 nM	50 to 75%	> 75%	250 to 1000 nM	< 50 nM	50 to 75%	> 75%	50 to 250 nM	N#Cc1nn(-c2cc(Cl)c(Oc3ccc4[nH]cc(CC5CC5)c4c3)c(Cl)c2)c(=O)[nH]c1=O [Compound 50, 2-(3,5-dichloro-4-[[3-(cyclopropylmethyl)-1H-indol-5-yl]oxy]phenyl)-3,5-dioxo-4H-1,2,4-triazine-6-carbonitrile]
< 50 nM	< 50%	50 to 75%	50 to 250 nM	250 to 1000 nM	< 50%	> 75%	50 to 250 nM	Cc1cc(-n2ncc(=O)[nH]c2=O)cc(C)c1Cc1cnc2[nH]cc(C(C)C)c2n1 [Compound 56, 2-(4-((7-isopropyl-5H-pyrrolo[2,3-b]pyrazin-2-yl)methyl)-3,5-dimethylphenyl)-1,2,4-triazine-3,5(2H,4H)-dione]
1000 to 25000 nM	< 50%	< 50%	> 10000 nM	> 25000 nM	< 50%	< 50%	1000 to 10000 nM	CO[C@H]1C[C@@H](c2cc(Oc3c(Cl)cc(-n4nc(N)c(=O)[nH]c4=O)cc3Cl)n[nH]c2=O)C1 [Compound 103]
< 50 nM	< 50%	> 75%	1000 to 10000 nM	< 50 nM	< 50%	> 75%	1000 to 10000 nM	N#Cc1nn(-c2cc(Cl)c(Oc3ccc4[nH]ccc4c3)c(Cl)c2)c(=O)[nH]c1=O [Compound 47, 2-[3,5-dichloro-4-(1H-indol-5-yloxy)phenyl]-3,5-dioxo-4H-1,2,4-triazine-6-carbonitrile]
< 50 nM	< 50%	> 75%	250 to 1000 nM	< 50 nM	< 50%	> 75%	50 to 250 nM	Cc1cc(-n2nc(C#N)c(=O)[nH]c2=O)cc(C)c1Cc1ccc2[nH]nc(C(C)C)c2c1 [Compound 57, 2-(4-((3-Isopropyl-1H-indazol-5-yl)methyl)-3,5-dimethylphenyl)-3,5-dioxo-2,3,4,5-tetrahydro-1,2,4-triazine-6-carbonitrile]
< 50 nM	< 50%	50 to 75%	< 50 nM	< 50 nM	< 50%	> 75%		Nc1nn(-c2cc(Cl)c(Oc3ccc4c(c3)C3(CCCCC3)C(=O)N4)c(Cl)c2)c(=O)[nH]c1=O [Compound 85]
50 to 250 nM	< 50%	50 to 75%	250 to 1000 nM	250 to 1000 nM	< 50%	> 75%	50 to 250 nM	Nc1nn(-c2cc(Cl)c(Oc3cc(-c4ccccc4)c(=O)[nH]n3)c(Cl)c2)c(=O)[nH]c1=O [Compound 63, 6-amino-2-[3,5-dichloro-4-[(6-hydroxy-5-phenylpyridazin-3-yl)oxy]phenyl]-4H-1,2,4-triazine-3,5-dione]
50 to 250 nM	< 50%	< 50%	1000 to 10000 nM	250 to 1000 nM	< 50%	50 to 75%	50 to 250 nM	CC1(C)CN(c2cc(Oc3c(Cl)cc(-n4nc(N)c(=O)[nH]c4=O)cc3Cl)n[nH]c2=O)C1 [Compound 159, 6-amino-2-(3,5-dichloro-4-[[5-(3,3-dimethylazetidin-1-yl)-6-oxo-1H-pyridazin-3-yl]oxy]phenyl)-4H-1,2,4-triazine-3,5-dione]
